In brackets after ≈: the same amount, converted by molar mass. Where a name gives a salt, the structure may show the parent alone.
Tests used:
[1] = test system: Staphylococcus aureus MRQR (methicillin resistant and quinolone resistant); assay: MIC, agar dilution, Staphylococcus aureus MRQR; assay type: cell-based; details: inoculum 10^4 CFU/spot, 37° C., 24 hours
Method: (§1) The following results were obtained on a standard in-vitro test system. The activity is described in terms of the minimum inhibitory concentration (MIC) determined by the agar-dilution technique with an inoculum size of 10^4 CFU/spot. Typically, compounds are active in the range 0.01 to 256 μg/ml.
(§2) Staphylococci were tested on agar, using an inoculum of 10^4 CFU/spot and an incubation temperature of 37° C. for 24 hours—standard test conditions for the expression of methicillin resistance.

Streptococcus pneumoniae = assay: MIC, agar dilution, Streptococcus pneumoniae; assay type: cell-based; details: agar with 5% defibrinated horse blood, 10^4 CFU/spot, 37° C., 5% carbon dioxide, 48 hours
Method: as §1
(§3) Streptococci and enterococci were tested on agar supplemented with 5% defibrinated horse blood, an inoculum of 10^4 CFU/spot and an incubation temperature of 37° C. in an atmosphere of 5% carbon dioxide for 48 hours—blood is required for the growth of some of the test organisms. Fastidious Gram negative organisms were tested in Mueller-Hinton broth, supplemented with hemin and NAD, grown aerobically for 24 hours at 37° C., and with an innoculum of 5×10^4 CFU/well.

[2] = test system: Staphylococcus aureus MSQS (methicillin sensitive and quinolone sensitive); assay: MIC, agar dilution, Staphylococcus aureus MSQS; assay type: cell-based; details: inoculum 10^4 CFU/spot, 37° C., 24 hours
Method: as §1, §2

[3] = test system: Linezolid Resistant Streptococcus pneumoniae; assay: MIC, agar dilution, Linezolid Resistant Streptococcus pneumoniae; assay type: cell-based; details: agar with 5% defibrinated horse blood, 10^4 CFU/spot, 37° C., 5% carbon dioxide, 48 hours
Method: as §1, §3

MAO-A = molecular target: T1, MAO-A (Homo sapiens, UniProt P21397); assay: MAO-A inhibition, standard in-vitro assay, human liver enzyme expressed in yeast; assay type: biochemical; details: read-out: Ki value against MAO-A
T1 construct: made in house; host or cells: yeast
T1 sequence (P21397 1-527): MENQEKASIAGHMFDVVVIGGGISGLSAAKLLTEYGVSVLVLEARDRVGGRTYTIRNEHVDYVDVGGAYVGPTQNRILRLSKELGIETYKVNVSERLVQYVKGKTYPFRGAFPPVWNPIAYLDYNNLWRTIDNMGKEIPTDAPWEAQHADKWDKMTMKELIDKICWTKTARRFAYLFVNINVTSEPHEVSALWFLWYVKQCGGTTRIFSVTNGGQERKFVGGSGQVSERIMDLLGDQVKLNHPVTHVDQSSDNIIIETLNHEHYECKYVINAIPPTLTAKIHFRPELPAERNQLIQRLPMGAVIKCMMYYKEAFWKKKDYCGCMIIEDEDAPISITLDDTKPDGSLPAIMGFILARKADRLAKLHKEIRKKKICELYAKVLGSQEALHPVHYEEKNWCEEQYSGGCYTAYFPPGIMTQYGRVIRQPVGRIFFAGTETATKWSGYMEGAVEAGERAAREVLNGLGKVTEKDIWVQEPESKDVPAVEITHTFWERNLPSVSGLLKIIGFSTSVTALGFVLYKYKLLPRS
Method: The activity of the compounds of the invention against MAO-A was tested using a standard in-vitro assay based on human liver enzyme expressed in yeast as described in Biochem. Biophys. Res. Commun. 1991, 181, 1084-1088.

Haemophilus influenzae = assay: MIC, Haemophilus influenzae (fastidious Gram negative, broth); assay type: cell-based; details: Mueller-Hinton broth with hemin and NAD, 24 hours at 37° C., 5×10^4 CFU/well
Method: as §1, §3

Moraxella catarrhalis = assay: MIC, Moraxella catarrhalis (fastidious Gram negative, broth); assay type: cell-based; details: Mueller-Hinton broth with hemin and NAD, 24 hours at 37° C., 5×10^4 CFU/well
Method: as §1, §3

| Structure (SMILES) | melting point [°C] | further results |
| --- | --- | --- |
| O=C1O[C@@H](Cn2ccnn2)CN1c1ccc(-c2ccc(C3=NO[C@H](CN4CCOCC4)C3)nc2)c(F)c1 [Example 3, (5R)-3-(3-Fluoro-4-{6-[(5S)-5-(morpholin-4-ylmethyl)-4,5-dihydroisoxazol-3-yl]pyridin-3-yl}phenyl)-5-(1H-1,2,3-triazol-1-ylmethyl)-1,3-oxazolidin-2-one] | 230 | MIC [1]: 0.5 µg/mL (≈ 0.985 µM); MIC (Streptococcus pneumoniae): 0.13 µg/mL (≈ 0.256 µM); MIC [2]: 0.5 µg/mL (≈ 0.985 µM); MIC [3]: 1 µg/mL (≈ 1.97 µM); Ki (MAO-A): > 22000 nM; MIC (Haemophilus influenzae): 8 µg/mL (≈ 15.8 µM); MIC (Moraxella catarrhalis): 1 µg/mL (≈ 1.97 µM) |
| CN1CCN(C[C@@H]2CC(c3ccc(-c4ccc(N5C[C@H](Cn6ccnn6)OC5=O)cc4F)cn3)=NO2)CC1 [Example 4, (5R)-3-[3-Fluoro-4-(6-{(5S)-5-[(4-methylpiperazin-1-yl)methyl]-4,5-dihydroisoxazol-3-yl}pyridin-3-yl)phenyl]-5-(1H-1,2,3-triazol-1-ylmethyl)-1,3-oxazolidin-2-one] | 218 |  |
| Cl.O=C1O[C@@H](Cn2ccnn2)CN1c1ccc(-c2ccc(C3=NO[C@@H](CN4CCOCC4)C3)nc2)c(F)c1 | 239 to 245 |  |
| Cl.O=C1O[C@@H](Cn2ccnn2)CN1c1ccc(-c2ccc(C3=NO[C@H](CN4CCOCC4)C3)nc2)c(F)c1 | 242 |  |

Second part, led by results:

| melting point [°C] | Structure (SMILES) | further results |
| --- | --- | --- |
| 202 to 204 | CN(C)CC(=O)NC[C@@H]1CC(c2ccc(-c3ccc(N4C[C@H](Cn5ccnn5)OC4=O)cc3F)cn2)=NO1 (as salt: hydrochloride) [Example 17, N^1-{[(5S)-3-(5-{2-Fluoro-4-[(5R)-2-oxo-5-(1H-1,2,3-triazol-1-ylmethyl)-1,3-oxazolidin-3-yl]phenyl}pyridin-2-yl)-4,5-dihydroisoxazol-5-yl]methyl}-N^2,N^2-dimethylglycinamide hydrochloride] |  |
| 119 to 122 | NC[C@@H]1CC(c2ccc(-c3ccc(N4C[C@H](Cn5ccnn5)OC4=O)cc3F)cn2)=NO1 [Reference Example 16, (5R)-3-(4-{6-[(5S)-5-(Aminomethyl)-4,5-dihydroisoxazol-3-yl]pyridin-3-yl}-3-fluorophenyl)-5-(1H-1,2,3-triazol-1-ylmethyl)-1,3-oxazolidin-2-one] | Ki (MAO-A): 350 nM |
| 185 to 188 | CN(CC(=O)O)CC(=O)NC[C@@H]1CC(c2ccc(-c3ccc(N4C[C@H](Cn5ccnn5)OC4=O)cc3F)cn2)=NO1 [Example 27, N-[2-({[(5S)-3-(5-{2-Fluoro-4-[(5R)-2-oxo-5-(1H-1,2,3-triazol-1-ylmethyl)-1,3-oxazolidin-3-yl]phenyl}pyridin-2-yl)-4,5-dihydroisoxazol-5-yl]methyl}amino)-2-oxoethyl]-N-methylglycine] |  |
| 224 to 226 | N[C@@H](CC(=O)O)C(=O)NC[C@@H]1CC(c2ccc(-c3ccc(N4C[C@H](Cn5ccnn5)OC4=O)cc3F)cn2)=NO1 [Example 28, N^1-{[(5S)-3-(5-{2-Fluoro-4-[(5R)-2-oxo-5-(1H-1,2,3-triazol-1-ylmethyl)-1,3-oxazolidin-3-yl]phenyl}pyridin-2-yl)-4,5-dihydroisoxazol-5-yl]methyl}-L-α-asparagine] |  |

Source: patent publication US20080064689A1, “3-[4-(6-Pyridin-3-Yl)-3-Phenyl] -5-(1H-1,2,3-Triazol-1-Ylmethyl)-1,3-Oxazolidin-2-Ones as Antibacterial Agents” (AstraZeneca AB, priority 2004, published 2008)
